pKi: −log10 of the molar value.
These molecules were tested against T1, 5-hydroxytryptamine receptor 3A (Homo sapiens, UniProt P46098) (assay: Radioligand Binding Assay: The relative affinity of the various compounds for the human 5-HT3 receptor was measured in a radioligand binding assay, using a scintillation proximity assay (SPA) format.).
T1 sequence (P46098 whole entry): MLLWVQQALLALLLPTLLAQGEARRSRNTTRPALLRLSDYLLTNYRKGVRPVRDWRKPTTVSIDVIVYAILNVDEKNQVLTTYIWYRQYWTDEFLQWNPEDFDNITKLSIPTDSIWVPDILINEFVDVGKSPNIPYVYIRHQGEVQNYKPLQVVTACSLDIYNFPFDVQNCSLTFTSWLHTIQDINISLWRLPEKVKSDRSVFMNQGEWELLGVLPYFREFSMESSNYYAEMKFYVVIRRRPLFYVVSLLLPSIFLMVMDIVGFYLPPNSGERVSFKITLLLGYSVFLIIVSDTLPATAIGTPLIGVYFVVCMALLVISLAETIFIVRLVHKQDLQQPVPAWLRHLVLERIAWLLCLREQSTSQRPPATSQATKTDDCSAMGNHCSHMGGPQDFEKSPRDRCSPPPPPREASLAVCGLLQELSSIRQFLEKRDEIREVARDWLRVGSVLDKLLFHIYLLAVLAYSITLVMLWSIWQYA
For `Cn1nc2c3c(cccc31)C(=O)N([C@@H]1CN3CCC1CC3)CC2`, the pKi was 8.70.
For `O=C1c2cccc3[nH]nc(c23)CCN1[C@@H]1CN2CCC1CC2`, the pKi was 8.40.
In the case of `CCn1nc2c3c(cccc31)C(=O)N([C@@H]1CN3CCC1CC3)CC2`, the pKi was 9.00.
In the case of `CC(C)n1nc2c3c(cccc31)C(=O)N([C@@H]1CN3CCC1CC3)CC2`, the pKi was 8.70.
In the case of `O=C1c2cccc3c2c(nn3Cc2ccccc2)CCN1[C@@H]1CN2CCC1CC2`, the pKi was 8.70.
For `O=C1c2cccc3[nH]nc(c23)CCN1[C@H]1CN2CCC1CC2`, the pKi was 6.97.
In the case of `O=C1c2cccc3c2c(cn3S(=O)(=O)c2ccccc2)CCN1[C@@H]1CN2CCC1CC2`, the pKi was 7.60.

Reference: ChEMBL document CHEMBL3638734, “5-HT3 receptor modulators, methods of making, and use thereof” (2013)
